# According to PubChem BioAssay AID192 (DTP/NCI, 2004):
# Values joined by “and” are separate entries in the source; they are usually repeats but may differ in a detail not shown here. Identical values can stand only once. Inconclusive results and toxic doses are left out.
# Tested on: BDF1 mice, B16 melanoma ip, median survival T/C
# Assay: NCI In Vivo Anticancer Drug Screen. Data for tumor model B16 Melanoma (intraperitoneal) in B6D2F1 (BDF1) mice
# Details: endpoint: median survival time, higher = longer survival
# How it was run: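 Mice with transplantable tumors; drug vs vehicle groups; endpoint survival or tumor size; value = T/C.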
# [1] = dose: 75.0 mg/kg/injection, schedule: Q01DX009 (ip), vehicle: Klucel (hydroxypropylcellulose) (HPC)
# [2] = dose: 150.0 mg/kg/injection, schedule: Q01DX009 (ip), vehicle: Klucel (hydroxypropylcellulose) (HPC)
# [3] = dose: 12.5 mg/kg/injection, schedule: Q01DX009 (ip), vehicle: Klucel (hydroxypropylcellulose) (HPC)
# [4] = dose: 25.0 mg/kg/injection, schedule: Q01DX009 (ip), vehicle: Klucel (hydroxypropylcellulose) (HPC)
# [5] = dose: 50.0 mg/kg/injection, schedule: Q01DX009 (ip), vehicle: Klucel (hydroxypropylcellulose) (HPC)
# [6] = dose: 100.0 mg/kg/injection, schedule: Q01DX009 (ip), vehicle: Klucel (hydroxypropylcellulose) (HPC)
# [7] = dose: 200.0 mg/kg/injection, schedule: Q01DX009 (ip), vehicle: Klucel (hydroxypropylcellulose) (HPC)
# [8] = dose: 400.0 mg/kg/injection, schedule: Q01DX009 (ip), vehicle: Klucel (hydroxypropylcellulose) (HPC)
# [9] = dose: 6.25 mg/kg/injection, schedule: Q01DX009 (ip), vehicle: Klucel (hydroxypropylcellulose) (HPC)
# [10] = dose: 50.0 mg/kg/injection, schedule: Q01DX009 (ip), vehicle: saline
# [11] = dose: 37.5 mg/kg/injection, schedule: Q01DX009 (ip), vehicle: Klucel (hydroxypropylcellulose) (HPC)
# [12] = dose: 1.0 mg/kg/injection, schedule: Q01DX009 (ip), vehicle: saline with Tween-80
# [13] = dose: 2.0 mg/kg/injection, schedule: Q01DX009 (ip), vehicle: saline with Tween-80
# [14] = dose: 4.0 mg/kg/injection, schedule: Q01DX009 (ip), vehicle: saline with Tween-80
# [15] = dose: 100.0 mg/kg/injection, schedule: Q01DX009 (ip), vehicle: saline
# [16] = dose: 200.0 mg/kg/injection, schedule: Q01DX009 (ip), vehicle: saline
# [17] = dose: 12.5 mg/kg/injection, schedule: Q01DX009 (ip), vehicle: saline with Tween-80
# [18] = dose: 25.0 mg/kg/injection, schedule: Q01DX009 (ip), vehicle: saline with Tween-80
# [19] = dose: 50.0 mg/kg/injection, schedule: Q01DX009 (ip), vehicle: saline with Tween-80
# [20] = dose: 100.0 mg/kg/injection, schedule: Q01DX009 (ip), vehicle: saline with Tween-80
# [21] = dose: 200.0 mg/kg/injection, schedule: Q01DX009 (ip), vehicle: saline with Tween-80
# [22] = dose: 400.0 mg/kg/injection, schedule: Q01DX009 (ip), vehicle: saline with Tween-80
compound,measurement,setting,value
CCOC(=O)c1ccc(NS(C)(=O)=O)cc1,T/C,[1],94 % of control
same,T/C,[2],102 % of control
same,T/C,"dose: 300.0 mg/kg/injection, schedule: Q01DX009 (ip), vehicle: Klucel (hydroxypropylcellulose) (HPC)",108 % of control
C[C@]12CC[C@@H]3c4ccc(OC(=O)Cc5ccc(N(CCCl)CCCl)cc5)cc4CC[C@H]3[C@@H]1CC[C@@H]2OC(=O)Cc1ccc(N(CCCl)CCCl)cc1,T/C,[3],95 % of control
same,T/C,[4],108 % of control
same,T/C,[5],104 % of control
same,T/C,"dose: 64.0 mg/kg/injection, schedule: Q02DX009 (ip), vehicle: Klucel (hydroxypropylcellulose) (HPC)",95 % of control
same,T/C,[6],111 % of control
same,T/C,[7],118 % of control
same,T/C,"dose: 256.0 mg/kg/injection, schedule: Q02DX009 (ip), vehicle: Klucel (hydroxypropylcellulose) (HPC)",90 % of control
same,T/C,[8],123 % of control
C=C1C(=O)OC2/C=C(\C)CC/C=C(/C=O)C(OC)C(OC(=O)C(C)C)C12 (stereo not drawn),T/C,[9],113 % of control
same,T/C,[3],111 % of control
same,T/C,[4],104 % of control
O=c1c2ccccc2sc2ccc(Br)cc12,T/C,[6],110 % of control
same,T/C,[7],100 % of control
same,T/C,[8],102 % of control
Cc1cccc(C)c1NC(=O)c1ccccc1,T/C,"dose: 12.5 mg/kg/injection, schedule: Q01DX009 (ip), vehicle: saline",93 % of control
same,T/C,[4],89 % of control
same,T/C,[5],100 % of control
same,T/C,[10],90 % of control
O=C(O)/C(=C\c1ccc(Cl)cc1)c1ccc(Cl)cc1,T/C,[11],87 % of control
same,T/C,[1],92 % of control
same,T/C,[2],93 % of control
CCC1CCCCC1(O)CC (stereo not drawn),T/C,[5],98 % of control
same,T/C,[6],99 % of control
OCC1OC(n2cnc3c(=S)nc[nH]c32)CC1O (stereo not drawn),T/C,[5],97 % of control
same,T/C,[6],92 % of control
O=C1OC(=O)C2C3C=CC(C3=C(c3ccccc3)c3ccccc3)C12 (stereo not drawn),T/C,"dose: 0.78 mg/kg/injection, schedule: Q04DX009 (ip), vehicle: Klucel (hydroxypropylcellulose) (HPC)",115 % of control
same,T/C,"dose: 1.56 mg/kg/injection, schedule: Q04DX009 (ip), vehicle: Klucel (hydroxypropylcellulose) (HPC)",121 % of control
same,T/C,"dose: 3.13 mg/kg/injection, schedule: Q04DX009 (ip), vehicle: Klucel (hydroxypropylcellulose) (HPC)",106 % of control
CCCCCc1cc(/C=C2/N=C(c3ccc[nH]3)C=C2OC)[nH]c1C,T/C,"dose: 0.25 mg/kg/injection, schedule: Q01DX009 (ip), vehicle: saline with Tween-80",98 % of control
same,T/C,"dose: 0.5 mg/kg/injection, schedule: Q01DX009 (ip), vehicle: saline with Tween-80",100 % of control
same,T/C,[12],102 % of control
same,T/C,[13],107 % of control
same,T/C,[14],110 % of control
CCOC(=O)C(NC(N)=O)C(=O)OCC,T/C,"dose: 50.0 mg/kg/injection, schedule: Q01DX009 (ip), vehicle: other",104 % of control
same,T/C,"dose: 100.0 mg/kg/injection, schedule: Q01DX009 (ip), vehicle: other",104 % of control
same,T/C,"dose: 200.0 mg/kg/injection, schedule: Q01DX009 (ip), vehicle: other",103 % of control
same,T/C,"dose: 400.0 mg/kg/injection, schedule: Q01DX009 (ip), vehicle: other",104 % of control
OC(C1CO1)(C(F)(F)F)C(F)(F)F (stereo not drawn),T/C,[10],92 % of control
same,T/C,[15],90 % of control
same,T/C,[16],92 % of control
CC(=O)Nc1ccc(S(=O)(=O)CO)cc1,T/C,[17],97 % of control and 110 % of control
same,T/C,[18],100 % of control and 114 % of control
same,T/C,[19],95 % of control and 96 % of control
same,T/C,[20],92 % of control and 115 % of control
same,T/C,[21],90 % of control and 110 % of control
same,T/C,[22],89 % of control and 99 % of control
COc1ccc(CC2C(=O)NC(C)C(=O)N(C)C3C(=O)N(C)C(Cc4ccc(O)c(c4)Oc4ccc(cc4)C3O)C(=O)NC(C)C(=O)NC(C)C(=O)N2C)cc1 (stereo not drawn) (tested in a mixture with another compound),T/C,"dose: 0.12 mg/kg/injection, schedule: Q01DX009 (ip), vehicle: other",97 % of control
same,T/C,"dose: 0.25 mg/kg/injection, schedule: Q01DX009 (ip), vehicle: other",109 % of control
same,T/C,"dose: 0.5 mg/kg/injection, schedule: Q01DX009 (ip), vehicle: other",161 % of control
same,T/C,"dose: 1.0 mg/kg/injection, schedule: Q01DX009 (ip), vehicle: other",152 % of control
same,T/C,[12],154 % of control
same,T/C,[13],157 % of control
same,T/C,"dose: 250.0 micrograms/kg/injection, schedule: Q01DX009 (ip), vehicle: saline",152 % of control
same,T/C,"dose: 2000.0 micrograms/kg/injection, schedule: Q01DX009 (ip), vehicle: saline",154 % of control
CC1(C)C=CC2=C(O1)C(=O)c1ccccc1C2=O,T/C,"dose: 25.0 mg/kg/injection, schedule: Q01DX009 (ip), vehicle: water",104 % of control
same,T/C,"dose: 50.0 mg/kg/injection, schedule: Q01DX009 (ip), vehicle: water",99 % of control
same,T/C,"dose: 100.0 mg/kg/injection, schedule: Q01DX009 (ip), vehicle: water",93 % of control
same,T/C,"dose: 200.0 mg/kg/injection, schedule: Q01DX009 (ip), vehicle: water",91 % of control
N#CC(CC(=O)c1ccc2c(c1)OCO2)c1ccc2c(c1)OCO2 (stereo not drawn),T/C,[6],105 % of control
same,T/C,[7],101 % of control
same,T/C,[8],94 % of control
Cc1cccc(/C=N\OCCc2ccccc2)n1,T/C,[20],97 % of control
same,T/C,[21],93 % of control
Nc1c(Cl)c(Cl)nc(C(=O)O)c1Cl,T/C,[9],96 % of control
same,T/C,[3],108 % of control
same,T/C,[4],108 % of control
same,T/C,"dose: 25.0 mg/kg/injection, schedule: Q02DX009 (ip), vehicle: Klucel (hydroxypropylcellulose) (HPC)",95 % of control
same,T/C,[5],96 % of control
same,T/C,"dose: 50.0 mg/kg/injection, schedule: Q02DX009 (ip), vehicle: Klucel (hydroxypropylcellulose) (HPC)",91 % of control
same,T/C,"dose: 50.0 mg/kg/injection, schedule: Q02DX009 (ip), vehicle: other",95 % of control
same,T/C,[6],102 % of control
same,T/C,"dose: 100.0 mg/kg/injection, schedule: Q02DX009 (ip), vehicle: other",86 % of control
same,T/C,[7],98 % of control
C=C1C(=O)OCC1(C(=O)OCC)C(=O)OCC,T/C,[14],109 % of control
same,T/C,"dose: 8.0 mg/kg/injection, schedule: Q01DX009 (ip), vehicle: saline with Tween-80",97 % of control
same,T/C,"dose: 16.0 mg/kg/injection, schedule: Q01DX009 (ip), vehicle: saline with Tween-80",89 % of control
CCOC(=O)CCOc1ccc(Cl)cc1,T/C,[20],101 % of control
same,T/C,[21],102 % of control
same,T/C,[22],96 % of control
Nc1ncnc2c1ncn2C1OC(CO)CC1O (stereo not drawn),T/C,"dose: 18.75 mg/kg/injection, schedule: Q01DX009 (ip), vehicle: Klucel (hydroxypropylcellulose) (HPC)",113 % of control
same,T/C,[11],112 % of control and 119 % of control
same,T/C,[1],104 % of control and 115 % of control
O=C(O)c1cc(-c2ccc(Cl)cc2)nc2c(-c3ccccc3)cccc12,T/C,[17],87 % of control
same,T/C,[18],105 % of control
same,T/C,[19],87 % of control and 94 % of control
same,T/C,[20],86 % of control
same,T/C,[21],87 % of control
CCN(CC)CCNc1ccc(C)c2sc3ccccc3c(=O)c12,T/C,"dose: 6.25 mg/kg/injection, schedule: Q01DX009 (ip), vehicle: suspension in saline",103 % of control
same,T/C,"dose: 12.5 mg/kg/injection, schedule: Q01DX009 (ip), vehicle: suspension in saline",105 % of control
same,T/C,"dose: 25.0 mg/kg/injection, schedule: Q01DX009 (ip), vehicle: suspension in saline",103 % of control
same,T/C,"dose: 50.0 mg/kg/injection, schedule: Q01DX009 (ip), vehicle: suspension in saline",102 % of control
same,T/C,"dose: 100.0 mg/kg/injection, schedule: Q01DX009 (ip), vehicle: suspension in saline",120 % of control
COC(=O)/C=C/c1ccc(OC)cc1,T/C,[6],97 % of control
same,T/C,[7],97 % of control
same,T/C,"dose: 200.0 mg/kg/injection, schedule: Q04DX003 (ip), vehicle: Klucel (hydroxypropylcellulose) (HPC)",86 % of control
same,T/C,[8],97 % of control
same,T/C,"dose: 400.0 mg/kg/injection, schedule: Q04DX003 (ip), vehicle: Klucel (hydroxypropylcellulose) (HPC)",100 % of control
CCOC(CNC(=O)CC(C)=O)OCC,T/C,[15],110 % of control
same,T/C,[16],118 % of control
same,T/C,"dose: 400.0 mg/kg/injection, schedule: Q01DX009 (ip), vehicle: saline",106 % of control
